Experiment: gradient 5% acetonitrile 3 min, to 50% in 2 min, to 85% in 15 min, held 3 min, 100 µL/min
Conditions: column: Zorbax Extend-C18 2.1 x 50 mm; eluents: water / acetonitrile, 0.1% formic acid
Method in brief: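 Retention time was recorded from adduct peaks, which were picked computationally and each inspected manually. Pure standards ran in mixtures of ~100 molecules on HPLC coupled to a quadrupole time-of-flight mass spectrometer, in positive and negative ionization mode, through a Zorbax Extend-C18 column (2.1 × 50 mm, 1.8 μm) at 100 μL/min. Eluents were water and acetonitrile, each with 0.1% formic acid.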

| RP-LC retention time | Structure (SMILES) |
| --- | --- |
| 1150 s | COc1cccc(CNS(=O)(=O)c2ccccc2-c2nc(-c3cccc(F)c3)no2)c1 |
| 1170 s | Nc1nc(-c2ccc(Cl)cc2)nn1C(=O)c1ccc(Cl)cc1 |
| 852 s | COc1cccc(CNC(=O)c2ccc3c(c2)N(C)C(=O)c2ccccc2O3)c1 |
| 778 s | CCc1nc2nccc(-c3ccc(OC)cc3F)n2n1 |
| 1080 s | Nc1ccccc1C(=O)Nc1ccc(Cl)cc1Cl |
| 740 s | CCOC(=O)c1c(S(=O)(=O)N2CCC(C(=O)Nc3nccs3)CC2)c(C)n(C)c1C |
| 1110 s | Cc1sc(NC(=O)CCn2c(=O)sc3ccccc32)nc1-c1ccc(Cl)cc1 |
| 976 s | CN(CC1(C)CCOCC1)S(=O)(=O)c1ccc(Cl)s1 |
| 773 s | O=C(NCC(=O)N1CCCc2ccccc21)c1cccc2[nH]ccc12 |
| 1320 s | COc1cccc(-c2nc(C3CCN(S(=O)(=O)c4c(C)cc(C)cc4C)CC3)no2)c1 |
| 674 s | Cc1nc2cc3c(cc2n1CC(=O)NCCOc1ccc(Cl)cc1)OCCO3 |
| 836 s | CCc1ccc(OCC(=O)Nc2cc3c(cc2N2CCCC2)n(C)c(=O)c(=O)n3C)cc1 |
| 690 s | Cc1ccc(-c2nc3cnccn3c2NCCC(=O)NCC(C)C)cc1 |
| 1140 s | Cc1cc(F)ccc1NC(=O)C1CCCN(c2nc3c(s2)c(C)nn3-c2ccccc2)C1 (stereo not given) |
| 855 s | CCOc1ccc(NC(=O)NC(C)C(=O)N2CCc3ccccc32)cc1 (stereo not given) |
| 748 s | Cc1cc2c(=O)n(CC(=O)Nc3ccc(F)c(C)c3)c3cccnc3n2n1 |
| 774 s | CCNC(=O)N1CCCC(c2cccc(C(=O)NCc3ccc(C)o3)c2)C1 (stereo not given) |
| 609 s | CC(NC(=O)c1ccsc1)C(=O)Nc1nc2ccccc2[nH]1 (stereo not given) |
| 692 s | CCC(CC)NC(=O)[C@@H]1[C@H](c2cc(OC)c(OC)c(OC)c2)c2cc3c(cc2[C@H](O)[C@H]1CO)OCO3 |
| 744 s | O=C(CN1CCN(Cc2ccc(F)cc2)C(=O)C1=O)N1CCN(c2ccc(F)cc2)CC1 |
| 786 s | Cc1nn(C)cc1CNC(=O)c1cnn2c(C(F)F)cc(-c3ccccc3)nc12 |
| 670 s | Cc1cccc(NC(=O)Nc2ccc(-c3cn4ccc(C)nc4n3)cc2)c1 |

| RP-LC retention time | Structure (SMILES) |
| --- | --- |
| 608 s | COc1ccc(S(=O)(=O)c2cnc3cc4c(cc3c2N2CCN(C)CC2)OCCO4)cc1 |
| 639 s | Cc1ccc(N2CCN(Cc3nc4nc(C)cc(N5CCCC5)n4n3)CC2)cc1 |
| 750 s | COc1ccccc1CNC(=O)CCc1nnc2c3cc(-c4ccccc4)nn3ccn12 |
| 884 s | Cc1ccc(N(Cc2ccccc2)S(=O)(=O)c2ccc3nnc(C)n3c2)cc1 |
| 985 s | COc1ccc(OCCn2c(C(F)(F)F)nc3cc4c(cc32)OCCO4)cc1 |
| 1140 s | COc1cc(NS(=O)(=O)c2c(C)sc(C)c2-c2cc(C(F)(F)F)on2)cc(OC)c1 |
| 1050 s | COc1cc(-c2noc(C3CC(=O)N(c4ccc(C)c(Cl)c4)C3)n2)cc(OC)c1OC (stereo not given) |
| 875 s | Cc1ccc2c(c1)N(S(C)(=O)=O)CCC(C(=O)NCc1ccccc1)O2 (stereo not given) |
| 942 s | Cc1cc(NC(=O)c2cc(C)n3nccc3n2)ccc1F |
| 797 s | Clc1ccc(-c2nc(-c3ccc(-n4ccnc4)nc3)no2)cc1 |
| 982 s | COc1ccc(OC)c(NC(=O)CN2C(=O)CC(c3ccccc3)=Nc3ccccc32)c1 |
| 903 s | CC(=O)NCc1ccc(-c2noc(/C=C/c3cccc(Cl)c3)n2)s1 |
| 719 s | Cc1cc(C)n2nc(SCC(=O)NCCc3ccc(Cl)cc3)nc2n1 |
| 1150 s | CCOC(=O)O[C@]1(C(=O)OCCl)CC[C@H]2[C@@H]3CCC4=CC(=O)C=C[C@]4(C)[C@H]3[C@@H](O)C[C@@]21C |
| 588 s | O=C(CSc1nnc2ccc(-c3cccnc3)nn12)NCc1cccs1 |
| 619 s | O=C(c1ccccn1)N1CCCC(OCc2nc(C3CC3)no2)C1 (stereo not given) |
| 1300 s | Cc1ccc(-c2nc(-c3cccc(-c4ccnn4C)c3)no2)cc1C |
| 591 s | O=C(c1ccc2c(c1)OCO2)N1CCCN(c2nnc3ccc(Cl)cn23)CC1 |
| 925 s | Cn1c(C(=O)N2CCCC(C(=O)N3CCc4ccccc4C3)C2)cc2sccc21 (stereo not given) |
| 841 s | COc1ccc(F)cc1S(=O)(=O)N1CC(c2nc(-c3ccsc3)nn2C)C1 |
| 688 s | CC(=O)c1cccc(NC(=O)C(C)Oc2ccc(=O)n(-c3ccc(F)cc3)n2)c1 (stereo not given) |
| 513 s | CCn1cc(CN2CCn3c(nnc3[C@@H]3C[C@@H](O)CN3Cc3cccnc3)C2)c(C)n1 |

| RP-LC retention time | Structure (SMILES) |
| --- | --- |
| 878 s | CN(Cc1ccccc1)C(=O)c1ccc2c(c1)N(Cc1ccccc1)C(=O)CO2 |
| 647 s | Cc1noc(CNC(=O)C2CCN(C(=O)Nc3ccccc3C(F)(F)F)CC2)n1 |
| 751 s | CN1C(=O)CCc2cc(NS(=O)(=O)Cc3cccc(Cl)c3)ccc21 |
| 643 s | CCOC(=O)c1noc2ncnc(N3CCN(Cc4ccccc4)CC3)c12 |
| 960 s | O=C(NCc1ccccc1)c1nc(Cn2c(=O)oc3ccc(Cl)cc32)no1 |
| 776 s | CCOc1ccccc1NC(=O)C1(C)Oc2cccnc2NC1=O (stereo not given) |
| 586 s | CCOC(=O)C1CCN(C(=O)CCC2CCN(c3cc(NC4CC4)ncn3)CC2)CC1 |
| 610 s | O=C(CCc1nc2sc3c(c2c(=O)[nH]1)CCCCC3)N1CCN(C2CCCCC2)CC1 |
| 1170 s | CCOc1ccc(-c2nc(-c3ccc(NS(=O)(=O)c4cccs4)cc3)no2)cc1 |
| 693 s | CC1CCN(C(=O)c2cc(S(=O)(=O)N(C)CC(=O)NC3CC3)cn2C)CC1 |
| 818 s | CCOc1ccc(S(=O)(=O)N2CCCC2C(=O)Nc2nccs2)cc1 (stereo not given) |
| 643 s | CCOC(=O)C1=C(CN2CCC(C(=O)OCC)CC2)NC(=O)NC1c1ccccc1 (stereo not given) |
| 620 s | CCN(CC)c1cc(CNC(=O)Nc2cc(OC)cc(OC)c2)ccn1 |
| 655 s | O=C(NCc1ccc2c(c1)OCO2)C1CCCN(C(=O)c2cc(-c3ccccn3)n[nH]2)C1 (stereo not given) |
| 720 s | Cc1ccc(CN(CC(=O)N2CCNCC2)C(=O)c2sccc2C)cc1 |
| 1020 s | Cc1c(C(=O)NCC2CC2)cnn1-c1ccc(-c2nc(C(C)(C)C)no2)cn1 |
| 627 s | CC(C)n1cnc(S(=O)(=O)N2CCCC(C(=O)Nc3cccc(CN4CCCC4)c3)C2)c1 (stereo not given) |
| 992 s | COc1ccc(-c2cc3nn(CC(=O)Nc4ccc(F)c(Cl)c4)c(=O)n3c(C)n2)cc1 |
| 802 s | Cc1ccc(N(Cc2nc3nc(C)cc(C)n3n2)C(=O)c2cccs2)cc1 |
| 882 s | CCn1ncn2cc(S(=O)(=O)Nc3ccc(C)cc3)cc2c1=O |
| 643 s | O=C(CC(F)(F)F)N1CCC(c2noc(-c3cccnc3)n2)C1 (stereo not given) |
